According to patent US6569638B1, “Method for screening compounds for the treatment of neoplasia” (Cell Pathways, Inc, priority 2000, dated 2003):

Test system: SW-480 colon adenocarcinoma cells
Assay: Apoptosis induction determined by morphology
Type: cell-based, human
From the text: Apoptosis occurs naturally during normal tissue turnover and during embryonic development of organs and limbs. Apoptosis also is induced by cytotoxic T-lymphocytes and natural killer cells, by ionizing radiation and by certain chemotherapeutic drugs. Inappropriate regulation of apoptosis is thought to play an important role in many pathological conditions including cancer, AIDS, or Alzheimer's disease, etc. Compounds can be screened for induction of apoptosis using cultures of tumor cells maintained under conditions as described above. Treatment of cells with test compounds involves either pre- or post-confluent cultures and treatment for two to seven days at various concentrations. Apoptotic cells are measured in both the attached and “floating” compartments of the cultures. Both compartments are collected by removing the supernatant, trypsinizing the attached cells, and combining both preparations following a centrifugation wash step (10 minutes, 2000 rpm). The protocol for treating tumor cell cultures with sulindac and related compounds to obtain a significant amount of apoptosis has been described in the literature. (See, Piazza, G. A., et al., Cancer Research, 55:31 10-16, 1995, which is incorporated herein by reference). The novel features include collecting both floating and attached cells, identification of the optimal treatment times and dose range for observing apoptosis, and identification of optimal cell culture conditions.
Following treatment with a compound, cultures can be assayed for apoptosis and necrosis by florescent microscopy following labeling with acridine orange and ethidium bromide. The method for measuring apoptotic cell number has previously been described by Duke & Cohen, “Morphological And Biochemical Assays Of Apoptosis,” Current Protocols In Immunology, Coligan et al., eds., 3.17.1-3.17.16 (1992, which is incorporated herein by reference).
For example, floating and attached cells can be collected by trypsinization and washed three times in PBS. Aliquots of cells can be centrifuged. […]

## CC1=C(CC(=O)NCc2ccccc2)c2cc(F)ccc2/C1=C\c1ccncc1.Cl [Compound B, (Z)-5-fluoro-2-methyl-(4-pyridylidene)-3-(N-benzyl)indenylacetamide hydrochloride]
0.35 μM
  % Apoptosis: 16%
0.7 μM
  % Apoptosis: 27%
1.5 μM
  % Apoptosis: 88%
